{"source": "paper PMC4636139", "about": "“Amphipols Outperform Dodecylmaltoside Micelles in Stabilizing Membrane Protein Structure in the Gas Phase” (Analytical Chemistry, 2014)", "key": {"Mhp1": {"molecular_target": "T1, Mhp1 (Microbacterium maritypicum, UniProt D6R8X8)", "T1 construct": "gene hyuP; His-tagged (Ni-NTA, HisProbe blot), expressed in E. coli inner membranes, solubilized in DDM or trapped in A8-35", "T1 sequence (D6R8X8 1-489)": "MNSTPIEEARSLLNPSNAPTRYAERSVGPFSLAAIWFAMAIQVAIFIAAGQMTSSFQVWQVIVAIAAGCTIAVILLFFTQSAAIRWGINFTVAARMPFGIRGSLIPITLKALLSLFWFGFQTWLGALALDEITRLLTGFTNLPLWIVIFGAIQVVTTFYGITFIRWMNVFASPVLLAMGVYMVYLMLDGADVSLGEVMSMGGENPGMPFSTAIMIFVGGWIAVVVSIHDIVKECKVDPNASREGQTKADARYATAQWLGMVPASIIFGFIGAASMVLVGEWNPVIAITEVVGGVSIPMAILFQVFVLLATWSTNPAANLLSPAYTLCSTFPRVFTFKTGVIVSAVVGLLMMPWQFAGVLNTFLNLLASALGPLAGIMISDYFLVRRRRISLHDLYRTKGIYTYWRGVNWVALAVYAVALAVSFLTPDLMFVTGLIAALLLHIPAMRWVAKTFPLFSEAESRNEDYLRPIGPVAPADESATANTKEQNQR", "experiment": "tryptophan fluorescence quenching titration", "type": "binding", "method": "tryptophan fluorescence quenching titration on Mhp1 | The activity of Mhp1 was evaluated by monitoring binding to L-benzylhydantoin, a known ligand"}, "GalP": {"molecular_target": "T2, GalP (Escherichia coli, UniProt P0AEP1)", "T2 construct": "His-tagged (Ni-NTA, HisProbe blot), expressed in E. coli inner membranes, solubilized in DDM or trapped in A8-35", "T2 sequence (P0AEP1 1-464)": "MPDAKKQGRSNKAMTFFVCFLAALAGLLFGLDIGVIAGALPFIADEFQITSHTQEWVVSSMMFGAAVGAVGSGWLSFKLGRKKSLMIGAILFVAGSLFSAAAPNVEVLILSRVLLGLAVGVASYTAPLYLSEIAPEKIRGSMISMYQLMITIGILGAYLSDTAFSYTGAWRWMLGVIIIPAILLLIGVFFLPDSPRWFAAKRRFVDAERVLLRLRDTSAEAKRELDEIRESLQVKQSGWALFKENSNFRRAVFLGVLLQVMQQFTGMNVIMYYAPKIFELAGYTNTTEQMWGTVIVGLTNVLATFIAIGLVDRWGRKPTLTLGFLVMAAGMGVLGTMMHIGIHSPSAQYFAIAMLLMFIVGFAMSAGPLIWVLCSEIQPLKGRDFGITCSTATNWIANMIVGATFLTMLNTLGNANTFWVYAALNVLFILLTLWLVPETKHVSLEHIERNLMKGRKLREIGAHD", "experiment": "tryptophan fluorescence quenching titration", "type": "binding", "method": "tryptophan fluorescence quenching titration on GalP | GalP activity was assessed by monitoring binding to the small molecule inhibitor forskolin"}}}
{"smiles": "O=C1NC(=O)[C@H](Cc2ccccc2)N1", "note": "[L-benzylhydantoin]", "values": [{"measurement": "Kd", "setting": "Mhp1", "result": "17.6 ± 1.8", "unit": "µM"}]}
{"smiles": "C=C[C@@]1(C)CC(=O)[C@]2(O)[C@@]3(C)[C@@H](O)CCC(C)(C)[C@@H]3[C@H](O)[C@H](OC(C)=O)[C@@]2(C)O1", "note": "[forskolin]", "values": [{"measurement": "Kd", "setting": "GalP", "result": "63 ± 19", "unit": "µM"}]}
